Results on 8 molecules are retold here after patent publication US20050032863A1, “Method of treating or preventing central nervous system disorders with compounds having selectivity for the alpha 3 subunit of the benzodiazepine receptor” (priority 2003, published 2005).

The subject of test [1] is 5-HT release in the brain. As to conditions: literature reports; cited from earlier work.
The target in test [2] is T1, recombinant rat α3β2γ2 GABAA receptors (Rattus norvegicus, UniProt P20236).
T1 construct: expressed in transfected cells; host or cells: HEK 293
T1 sequence (P20236 29-493): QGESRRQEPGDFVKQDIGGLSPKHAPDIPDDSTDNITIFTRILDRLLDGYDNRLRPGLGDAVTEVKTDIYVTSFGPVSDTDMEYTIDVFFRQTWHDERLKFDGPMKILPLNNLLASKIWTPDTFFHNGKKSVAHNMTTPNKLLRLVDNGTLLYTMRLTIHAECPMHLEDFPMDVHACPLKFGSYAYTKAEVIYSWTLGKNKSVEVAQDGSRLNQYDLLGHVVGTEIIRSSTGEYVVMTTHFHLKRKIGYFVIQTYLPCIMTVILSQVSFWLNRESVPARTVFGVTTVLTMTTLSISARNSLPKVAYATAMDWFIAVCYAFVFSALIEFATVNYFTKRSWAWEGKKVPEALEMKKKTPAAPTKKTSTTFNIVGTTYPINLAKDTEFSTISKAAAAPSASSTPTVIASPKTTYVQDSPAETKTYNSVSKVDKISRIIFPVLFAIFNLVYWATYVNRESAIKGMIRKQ
The test can be described thus: Whole-cell patch-clamp, modulation of GABA (EC20)-induced currents in transfected HEK 293 cells, α3β2γ2. The test is classed as cell-based. How it is done:
(§1) For electrophysiological recording HEK-293 cells were passaged and replated on 12-mm glass coverslips located in 9.6-cm plastic dishes filled with 10 ml of Minimum Essential Medium (MEM, Gibco) supplemented with 158 mg/l sodium bicarbonate, 2 mM glutamine (Gibco), 100 U/ml penicillin-streptomycin (Gibco), and 10% foetal calf serum (Gibco). Cultures were maintained at 37° C. in a humidified […]/5% CO2 atmosphere for 2-3 days.
(§2) Transfection with recombinant rat GABAA receptors was carried out as described in detail (Korpi and Lüddens, 1993, Lüddens and Korpi, 1995b). Briefly, HEK 293 cells were transfected in triple combinations using the phosphate precipitation method with rat GABAA receptor cDNAs in eukaryotic expression vectors (Pritchett, 1990) for the α, β and γ subunits. For optimal receptor expression, final concentrations (μg vector DNA per 9.6 cm tissue culture plate) were: α1, 2; α2 4.8; α3, 1.2; α4, 10; α5, 0.8; β2, 0.4; and γ2S, 0.3. The γ2S variant is abbreviated γ2 in the remainder of the text. To identify transfected cells all subunit combinations were co-transfected with 1 μg per plate of pNI-EGFP.
(§3) Two days after transfection single coverslips containing HEK 293 cells were placed in a recording chamber mounted on the movable stage of a fluorescence microscope (Olympus IX70) and perfused with a defined saline solution containing (in mM): 130 NaCl, 5.4 KCl, 2 CaCl2, 2 MgSO4, 10 glucose, 5 sucrose, and 10 HEPES (free acid), pH adjusted to 7.35 with about 35 mM NaOH. Transfected cells were identified by their green fluorescence due to the expression of the pNI-EGFP vector and ligand-mediated membrane currents of these cells were studied in the whole-cell configuration of the patch-clamp technique (Hamil et al., 1981). Patch-clamp pipettes were pulled from hard borosilicate capillary glass (0.5 mm ID, 1.5 mm OD, Vitrex, Science Products GmbH, Hofheim, Germany) using a horizontal puller (Sutter Instruments, CA, Model P-97) in a multi-stage process.
(§4) Seal resistances >1 GΩ were routinely obtained by applying gentle suction to the pipettes. Membrane rupture was monitored electrically as an increase in capacity. Pipette capacitance, membrane capacitance, and series resistance were electronically compensated to achieve minimal capacitative transients. A series resistance compensation of >60% was regularly used.
(§5) In all cells recorded the presence of the γ2 subunit in the heteropentamere was monitored by the application of 1 μM zolpidem plus the EC20 of GABA before testing the experimental drugs.
(§6) Responses of the cells were recorded by a patch-clamp amplifier (EPC-8, HEKA-Electronic, Lambrecht, Germany) in conjunction with a standard personal computer and the pClamp 8.1 software package (Axon Instruments, Foster City, Calif.). The standard holding-potential for the cells was −40 mV. Whole cell currents were low-pass filtered by an eight-pole Bessel filter at 5 or 3 kHz before being digitised by a Digidata 1322A interface (Axon Instruments, Foster City, Calif.) and recorded by the computer at a sampling rate of at least […].
(§7) Efficacy, potency, and GABAA receptor a subunit specificity of the new compound ELB139 was tested with the whole cell configuration of the patch-clamp technique by applying increasing drug concentration together with GABA of the approximate EC20 on green fluorescing cells. BZ binding site specificity of the new compound was tested on the same cells in an identical experimental setting with additionally applying 10 μM Ro15-1788.
In general terms: The patch-clamp technique gives a direct electrical read-out from membranes.

Test [3] has as its target T2, recombinant rat α1β2γ2 GABAA receptors (Rattus norvegicus, UniProt P62813).
T2 construct: expressed in transfected cells; host or cells: HEK 293
The experiment in a line: Whole-cell patch-clamp, modulation of GABA (EC20)-induced currents in transfected HEK 293 cells, α1β2γ2. The test is classed as cell-based. How it is done:
as §1, §2, §3, §4, §5, §6, §7

Test [4] addresses T3, recombinant rat α5β2γ2 GABAA receptors (Rattus norvegicus, UniProt P19969).
T3 construct: expressed in transfected cells; host or cells: HEK 293
The test can be described thus: Whole-cell patch-clamp, modulation of GABA (EC20)-induced currents in transfected HEK 293 cells, α5β2γ2. It counts as cell-based. How it is done:
as §1, §2, §3, §4, §5, §6, §7

Test [5] has as its target T4, recombinant rat α4β2γ2 GABAA receptors (Rattus norvegicus, UniProt P28471).
T4 construct: expressed in transfected cells; host or cells: HEK 293
The experiment in a line: Whole-cell patch-clamp, modulation of GABA (EC20)-induced currents in transfected HEK 293 cells, α4β2γ2. As to conditions: α4-containing receptors; diazepam up to 1 μM, ELB139 at all concentrations tested. The test is classed as cell-based. How it is done:
as §1, §2
as §3, with “Patch-clamp pipettes were pulled from hard borosilicate capillary glass (0.5 mm ID, 1.5 mm OD, Vitrex, Science Products GmbH, Hofheim, Germany) using a horizontal puller (Sutter Instruments, CA, Model P-97) in a multi-stage process.” left out
Seal resistances >1 GΩ were routinely obtained by applying gentle suction to the pipettes. Membrane rupture was monitored electrically as an increase in capacity. […]
In all cells recorded the presence of the γ2 subunit in the heteropentamere was monitored by the application of 1 μM zolpidem plus the EC20 of GABA before testing the experimental drugs. […]

The target in test [6] is T5, recombinant rat α2β2γ2 GABAA receptors (Rattus norvegicus, UniProt P23576).
T5 construct: expressed in transfected cells; host or cells: HEK 293
T5 sequence (P23576 29-451): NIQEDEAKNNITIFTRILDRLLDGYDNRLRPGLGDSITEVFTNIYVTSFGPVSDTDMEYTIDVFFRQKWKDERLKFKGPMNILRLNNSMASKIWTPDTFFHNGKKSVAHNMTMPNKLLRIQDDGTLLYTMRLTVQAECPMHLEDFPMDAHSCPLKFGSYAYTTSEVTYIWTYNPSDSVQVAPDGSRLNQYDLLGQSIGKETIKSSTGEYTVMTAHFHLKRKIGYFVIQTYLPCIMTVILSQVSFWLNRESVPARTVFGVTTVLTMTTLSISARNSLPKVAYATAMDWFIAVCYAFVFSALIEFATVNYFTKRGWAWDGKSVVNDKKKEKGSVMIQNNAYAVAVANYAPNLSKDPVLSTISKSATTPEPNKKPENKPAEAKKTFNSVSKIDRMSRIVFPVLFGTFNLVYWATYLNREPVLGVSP
The test can be described thus: Whole-cell patch-clamp, modulation of GABA (EC20)-induced currents in transfected HEK 293 cells, α2β2γ2. It counts as cell-based. How it is done:
as §1, §2, §3, §4, §5, §6, §7

Test [7] has as its system female Wistar rats, MK-801-induced stereotypies, hyperactivity and ataxia. The experiment in a line: MK-801-induced psychosis-related behaviour and reversibility by flumazenil (Example 7). It counts as in vivo, rat. As to the method: Apart from the haloperidol rats which received haloperidol 30 minutes and MK-801 10 minutes prior to the test, the other test groups received haloperidol, ELB139 or vehicle 60 minutes prior to test, saline or flumazenil 20 minutes prior to test and MK-801 10 minutes prior to test.
(§8) The behaviour induced by the NMDA antagonist MK-801 is generally accepted as a rat model of psychosis. MK-801 induces stereotypies, hyperactivity and ataxia in rats after intraperitoneal administration.
Locomotor activity of the rats is recorded by the MotiTest Apparatus (TSE, Bad Homburg, Germany). The test area consisted of a squared arena (45×45 cm) with protective plexiglass walls (20 cm of height) where rats could freely move. Horizontal movements were recorded by 32 infrared photocells arranged along the bottom of each wall of the arena. Vertical movements (rearings) were recorded by a horizontal row of 32 infrared photocells 12 cm above the floor. The following parameters were measured by the computer program “ActiMot” (TSE, Bad Homburg, Germany): • 1. active time [s] • 2. total distance travelled [m]
(§9) Stereotypies, divided into stereotyped sniffing and other stereotypies, and ataxia are scored by the experimenter every five minutes for one hour (12 intervals) according to the method described by Andiné et al. (1999). The scores of the 12 intervals are added for each parameter.
The day of experiment the female rats are placed in the laboratory and receive the test compound, the reference substance or vehicle at the appropriate time prior to test. […]
(§10) At the beginning of the test the rats are placed in the centre of the squared arena of the MotiTest apparatus. Behaviour of the rats is recorded for one hour. After each run animals are removed and the boxes thoroughly cleaned and dried.

Test [8] has the same test system. The test can be described thus: MK-801-induced behaviour, rat model of psychosis (Example 1). The test is classed as in vivo. Conditions: 0.5 mg/kg i.p. 1 h prior to test; MK-801 0.2 mg/kg i.p.; p<0.001. As to the method:
as §8
Locomotor activity of the rats is recorded by the MotiTest Apparatus (TSE, Bad Homburg, Germany). The test area consisted of a squared arena ([…] with protective plexiglass walls (20 cm of height) where rats could freely move. Horizontal movements were recorded by 32 infrared photocells arranged along the bottom of each wall of the arena. Vertical movements (rearings) were recorded by a horizontal row of 32 infrared photocells 12 cm above the floor. The following parameters are measured by the computer program “ActiMot” (TSE, Bad Homburg, Germany): • active time [s] and total distance travelled [m]
as §9
The day of experiment the female rats are placed in the laboratory and receive the test compound, the reference substance or vehicle at the appropriate time prior to test. MK-801 0.2 mg/kg is intraperitoneally administered 10 minutes prior to test.
as §10

The target in another test is alpha 2 receptors (UniProt P18508+P47869). Conditions: cited from earlier work.
Chain of alpha 2 receptors (P47869 29-451): as the sequence (P23576 29-451) above, with S88L, P174A, G330A counted along it
Chain of alpha 2 receptors (P63138 25-474 partner limits assumed): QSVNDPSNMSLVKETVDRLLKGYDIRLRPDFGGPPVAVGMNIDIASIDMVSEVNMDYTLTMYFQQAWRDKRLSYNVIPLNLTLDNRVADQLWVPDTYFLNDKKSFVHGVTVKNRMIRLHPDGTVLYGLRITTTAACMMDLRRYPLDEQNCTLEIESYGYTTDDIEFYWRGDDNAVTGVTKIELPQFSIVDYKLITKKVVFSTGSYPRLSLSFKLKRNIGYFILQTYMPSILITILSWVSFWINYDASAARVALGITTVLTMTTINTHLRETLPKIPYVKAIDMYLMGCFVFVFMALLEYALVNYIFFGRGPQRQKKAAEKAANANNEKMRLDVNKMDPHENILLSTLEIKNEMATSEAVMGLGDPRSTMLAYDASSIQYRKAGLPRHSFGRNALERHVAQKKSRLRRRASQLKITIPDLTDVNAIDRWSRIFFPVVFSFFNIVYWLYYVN
Chain of alpha 2 receptors (P18508 39-466): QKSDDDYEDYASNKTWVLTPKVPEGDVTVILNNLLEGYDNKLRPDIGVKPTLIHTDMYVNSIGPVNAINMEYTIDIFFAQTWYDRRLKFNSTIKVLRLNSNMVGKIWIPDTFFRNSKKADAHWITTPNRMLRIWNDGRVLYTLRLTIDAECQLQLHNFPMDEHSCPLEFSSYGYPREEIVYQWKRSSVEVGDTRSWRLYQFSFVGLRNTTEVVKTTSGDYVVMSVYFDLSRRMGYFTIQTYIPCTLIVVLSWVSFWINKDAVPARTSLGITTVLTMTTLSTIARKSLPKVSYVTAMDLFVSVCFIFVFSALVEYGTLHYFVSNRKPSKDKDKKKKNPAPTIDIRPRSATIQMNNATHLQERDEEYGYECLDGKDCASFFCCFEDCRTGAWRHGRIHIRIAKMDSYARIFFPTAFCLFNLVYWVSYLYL
Test [9] addresses alpha 1 containing receptors (UniProt P14867+P18508). As to conditions: cited from earlier work.
Test [10] addresses alpha 5 containing receptors (UniProt P18508+P31644). As to conditions: cited from earlier work.
A further test concerns the target alpha 3 receptors (UniProt P18508+P34903). Conditions: cited from earlier work.
The test system of the next test is male Wistar rats. The test can be described thus: Rat forced swim test. As to conditions: 10 and 30 mg/kg p.o., 23, 5 and 1 h prior to testing. The test is classed as in vivo. As to the method: All animals were treated with verum or vehicle three times: shortly after the habituation session (23 h), 5 and 1 h prior to testing. All drugs were administered orally with an application volume of 1 ml/kg.
The animals were tested in a glass tank (23×30 cm, height 40 cm) filled to a depth of 28 cm with water at 22° C. (the animals could not touch the bottom). The glass tank was illuminated indirectly and was surrounded by dark brown shading walls (distance from the tank 20 cm) to prevent the view on the experimenter. The experiments were performed between 14:00 and 17:00 hours and the method was in general performed as described (Porsolt et al., 1979; Lucki, 1997).
On the first experimental day, rats were gently placed in the water for a 15 min period of habituation. On removal from the water, they were placed in a standard plexiglass box, the floor covered with paper towels, under an infrared heater for 30 min to dry. The next day, they were once more placed gently in the glass tank and observed for 5 min. The behaviour of the animals was video-taped.
Following the experiment the video tapes were analysed manually and the duration of the following behaviours was recorded: Immobility: floating and making only those movements necessary to keep the nose above the water. […] Climbing: when rats strongly move their forepaws in and out of the water, usually against the walls.

Setting [11] is: haloperidol 0.5 mg/kg i.p. + flumazenil 5 mg/kg i.p.
[12] abbreviates: haloperidol 0.5 mg/kg i.p., MK-801 0.1 mg/kg i.p.

Molecules are shown by their SMILES.

T3 sequence (P19969 32-464 limits assumed): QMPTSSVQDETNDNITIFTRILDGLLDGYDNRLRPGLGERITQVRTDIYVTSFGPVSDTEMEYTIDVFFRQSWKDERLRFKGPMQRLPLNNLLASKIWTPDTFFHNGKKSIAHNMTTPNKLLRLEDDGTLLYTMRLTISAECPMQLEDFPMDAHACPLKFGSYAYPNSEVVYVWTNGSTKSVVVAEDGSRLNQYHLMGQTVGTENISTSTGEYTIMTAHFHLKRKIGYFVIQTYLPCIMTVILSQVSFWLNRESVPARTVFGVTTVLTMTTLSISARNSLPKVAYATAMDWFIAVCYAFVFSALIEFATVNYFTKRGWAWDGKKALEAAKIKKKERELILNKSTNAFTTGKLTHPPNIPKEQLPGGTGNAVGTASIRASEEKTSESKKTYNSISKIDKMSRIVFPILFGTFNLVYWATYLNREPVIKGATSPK
T2 sequence (P62813 28-455): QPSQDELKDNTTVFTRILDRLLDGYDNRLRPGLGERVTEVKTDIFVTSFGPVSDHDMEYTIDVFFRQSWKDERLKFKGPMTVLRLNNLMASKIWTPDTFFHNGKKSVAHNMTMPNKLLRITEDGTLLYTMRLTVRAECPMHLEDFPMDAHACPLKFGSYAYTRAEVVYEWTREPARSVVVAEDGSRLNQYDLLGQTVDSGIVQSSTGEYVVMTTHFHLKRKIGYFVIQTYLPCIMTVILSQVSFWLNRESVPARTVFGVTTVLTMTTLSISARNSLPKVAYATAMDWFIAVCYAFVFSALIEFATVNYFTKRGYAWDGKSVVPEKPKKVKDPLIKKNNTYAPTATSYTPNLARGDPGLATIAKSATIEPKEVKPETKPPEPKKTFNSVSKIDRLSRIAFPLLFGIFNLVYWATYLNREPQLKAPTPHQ
Chain of alpha 1 containing receptors (P14867 28-456): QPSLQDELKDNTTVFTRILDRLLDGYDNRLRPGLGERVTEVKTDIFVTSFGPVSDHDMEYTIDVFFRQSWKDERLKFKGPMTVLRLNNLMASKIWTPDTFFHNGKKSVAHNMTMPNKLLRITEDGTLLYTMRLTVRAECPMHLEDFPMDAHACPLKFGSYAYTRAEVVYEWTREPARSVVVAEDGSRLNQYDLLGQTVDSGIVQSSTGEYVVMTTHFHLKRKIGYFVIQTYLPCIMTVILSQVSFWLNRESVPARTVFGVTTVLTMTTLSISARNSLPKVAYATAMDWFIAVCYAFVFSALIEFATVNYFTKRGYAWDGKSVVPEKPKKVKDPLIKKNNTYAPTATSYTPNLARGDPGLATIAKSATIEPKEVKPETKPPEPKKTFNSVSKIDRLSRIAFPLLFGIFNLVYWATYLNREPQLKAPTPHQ
Chain of alpha 1 containing receptors (P63138 25-474 partner limits assumed): as the sequence (P63138 25-474 partner limits assumed) above
Chain of alpha 1 containing receptors (P18508 39-466): as the sequence (P18508 39-466) above
Chain of alpha 5 containing receptors (P31644 32-462): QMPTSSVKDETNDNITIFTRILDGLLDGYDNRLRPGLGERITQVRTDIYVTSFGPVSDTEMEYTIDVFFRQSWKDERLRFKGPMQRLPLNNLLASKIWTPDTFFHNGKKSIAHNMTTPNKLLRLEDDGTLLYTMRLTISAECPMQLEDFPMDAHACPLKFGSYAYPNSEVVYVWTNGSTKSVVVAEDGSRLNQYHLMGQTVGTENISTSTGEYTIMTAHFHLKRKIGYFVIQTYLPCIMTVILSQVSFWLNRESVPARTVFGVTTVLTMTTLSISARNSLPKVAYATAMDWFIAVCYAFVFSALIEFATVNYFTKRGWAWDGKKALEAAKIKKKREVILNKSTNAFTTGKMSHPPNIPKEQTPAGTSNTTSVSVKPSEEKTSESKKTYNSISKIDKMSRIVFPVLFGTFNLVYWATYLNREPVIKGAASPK
Chain of alpha 5 containing receptors (P63079 26-473 partner): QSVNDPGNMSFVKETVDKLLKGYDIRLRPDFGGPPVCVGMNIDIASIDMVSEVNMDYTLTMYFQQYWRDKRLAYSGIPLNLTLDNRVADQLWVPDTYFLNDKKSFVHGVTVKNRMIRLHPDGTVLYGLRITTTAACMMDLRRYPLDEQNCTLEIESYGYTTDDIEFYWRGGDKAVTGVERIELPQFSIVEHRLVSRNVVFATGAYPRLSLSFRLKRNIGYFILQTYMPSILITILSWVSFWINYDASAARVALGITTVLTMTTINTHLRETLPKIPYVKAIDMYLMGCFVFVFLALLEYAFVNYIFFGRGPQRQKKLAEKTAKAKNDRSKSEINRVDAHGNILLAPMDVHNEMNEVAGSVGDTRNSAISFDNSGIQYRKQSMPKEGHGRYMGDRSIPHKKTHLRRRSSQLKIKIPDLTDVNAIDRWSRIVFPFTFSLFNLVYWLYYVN
Chain of alpha 5 containing receptors (P18508 39-466): as the sequence (P18508 39-466) above
T4 sequence (P28471 36-552): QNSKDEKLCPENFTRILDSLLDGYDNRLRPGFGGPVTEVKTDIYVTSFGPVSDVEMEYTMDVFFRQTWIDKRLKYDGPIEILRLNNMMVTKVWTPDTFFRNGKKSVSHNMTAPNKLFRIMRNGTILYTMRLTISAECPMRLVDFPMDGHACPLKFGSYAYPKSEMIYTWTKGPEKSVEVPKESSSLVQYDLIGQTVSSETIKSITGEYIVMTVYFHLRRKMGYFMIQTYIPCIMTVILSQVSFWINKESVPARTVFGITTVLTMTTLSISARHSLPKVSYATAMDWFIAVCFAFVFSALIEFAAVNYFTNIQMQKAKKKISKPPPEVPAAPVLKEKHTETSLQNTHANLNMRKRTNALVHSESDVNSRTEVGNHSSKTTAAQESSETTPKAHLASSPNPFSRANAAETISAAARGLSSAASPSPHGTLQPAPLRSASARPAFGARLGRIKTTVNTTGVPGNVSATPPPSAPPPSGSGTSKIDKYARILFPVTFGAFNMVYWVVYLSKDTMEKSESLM

For `NC(=O)N1c2ccccc2C=Cc2ccccc21` [Carbamazepine], in [1], the “effect on 5-HT release / extracellular 5-HT in the brain” value was “increase”.

Turning to `CN1C(=O)CN=C(c2ccccc2)c2cc(Cl)ccc21` [Diazepam, reference compound], the “concentrations at which positive current modulation was observable” value in [2] (α3-containing receptors) was “below 10 nM”. For the same molecule, the “Potentiation* (Diazepam)” value in test [2] (α3β2γ2, with GABA EC20, graphically determined) came out at 1.8 ± 0.11; in [3] (α1β2γ2, with GABA EC20, graphically determined) it was 2.2 ± 0.9; in test [4] (with GABA EC20, graphically determined), 2 ± 0.05; in test [6] (α2β2γ2, with GABA EC20, graphically determined) it was 1.8 ± 0.6. In addition, the “maximal positive modulation of GABA-induced current” value in test [3] (α1-containing receptors, maximum at 30 μM (ELB139), at 1 μM (diazepam)) is on record as 2.2±0.9 fold; in test [4] (maximum at 30 μM (ELB139), at 1 μM (diazepam)), 2±0.05 fold. Also, the “concentration at which the current was potentiated” value in test [4] is recorded as 10 nM. In addition, the “modulation of GABA-induced currents (in words)” value in test [5] is reported as “no significant modulation”. Further, the “concentration at which positive current modulations were first measurable” value in test [6] (α2 containing receptors) is recorded as “below 0.1 μM”. Moreover, the “maximal agonism, potentiation of GABA-induced current” value in test [6] (α2β2γ2, at 1 μM diazepam) was 1.8 fold.

Take `O=C(CCCN1CCC(O)(c2ccc(Cl)cc2)CC1)c1ccc(F)cc1` [Haloperidol, 4-(4-[4-chlorophenyl]-4-hydroxy-1-piperidinyl)-1-(4-fluorophenyl)-1-nutanone, reference compound]: in test [7] (setting [11]), the “MK-801-induced ataxia, combination with flumazenil” value is given as “significantly reversed”; the “effects on activity, distance, sniffing and other stereotypies when flumazenil is added” value is “not affected”. The MK-801-induced ataxia result in test [7] (haloperidol 0.5 mg/kg i.p. alone, MK-801 0.1 mg/kg i.p.) is given as “only marginally reduced”. In addition, in test [7] (setting [12]), the MK-801-increased activity entry is “significantly reversed”, the MK-801-increased distance travelled result is “significantly reversed”, the MK-801-induced other stereotypies entry is listed as “slightly reduced” and the “MK-801-induced sniffing (stereotypies)” value is given as “significantly reversed”. For the same molecule, the “all symptoms induced by MK-801” value in [8] is on record as “significantly reduced all symptoms”.

Regarding `Cn1c2ccc(F)cc2c2c(C(=O)N3CCCC3)cn(-c3ccccc3)c(=O)c21` [SL651498], the partial agonistic activity on alpha 2 receptors is given as 100%; in [9] it was 40-50%; in test [10] it was 40-50%. On alpha 3 receptors, the activity is 70%.

As for `CCCC(CCC)C(=O)O` [Valproate], in test [1], the “effect on 5-HT release / extracellular 5-HT in the brain” value is given as “enhances”.

As to `CNCCC(Oc1ccc(C(F)(F)F)cc1)c1ccccc1` (stereo not drawn) [fluoxetine, N-methyl-γ-[4-(trifluoromethyl)phenoxy] benzenepropanamine, reference compound], in the test on male Wistar rats, the climbing behaviour entry is on record as “not changed”, the swimming time entry is listed as “increased” and the time spent immobile entry is “reduced”.

Consider `NCC1(CC(=O)O)CCCCC1` [gabapentin], for which the “effect on 5-HT release / extracellular 5-HT in the brain” value in test [1] is “decrease”.

For the molecule `O=C1NC(=O)C(c2ccccc2)(c2ccccc2)N1` [phenytoin], in test [1], the “effect on 5-HT release / extracellular 5-HT in the brain” value was “decrease”.
